# Values joined by “and” are separate entries in the source; they are usually repeats but may differ in a detail not shown here. Equal values may be shown once.
# Assays:
# Experiment in all cases: ≥ marks a high value that may be exact or a test limit, other limits are often not marked, values filed in µg/mL are converted to µM
# [1] = system: Acinetobacter baumannii BCRC 14B0100
# [2] = system: Pseudomonas aeruginosa ATCC 27853
# Escherichia coli K99 = system: Escherichia coli K99
# Escherichia coli UB1005 = system: Escherichia coli UB1005
# [3] = system: Lacticaseibacillus rhamnosus 1.0911
# [4] = system: Lacticaseibacillus rhamnosus 1.0386
# [5] = system: Lactiplantibacillus plantarum 8014
# [6] = system: Salmonella enterica subsp. enterica serovar Typhimurium C77-31
# Escherichia coli 078 = system: Escherichia coli 078
# Escherichia coli 987P = system: Escherichia coli 987P
# [7] = system: Staphylococcus aureus ATCC 29213
# Escherichia coli K88 = system: Escherichia coli K88
# [8] = system: Staphylococcus aureus ATCC 25923
# [9] = system: Staphylococcus epidermidis ATCC 12228
# [10] = system: Streptococcus agalactiae ATCC 13813
# [11] = system: Lacticaseibacillus rhamnosus 1.0385
# [12] = system: Lacticaseibacillus rhamnosus 1.9205
# [13] = system: Lacticaseibacillus rhamnosus 7469
# [14] = system: Escherichia coli NCTC 10418
# [15] = system: Klebsiella pneumoniae ATCC 43816
# [16] = system: Enterococcus faecalis NCTC 12697
# [17] = system: Staphylococcus aureus NCTC 12493
# [18] = system: Candida albicans NCYC 1467
# [19] = system: Staphylococcus aureus NCTC 10788
# [20] = system: Staphylococcus aureus ATCC 6538P
# [21] = system: Staphylococcus epidermidis
# [22] = system: Pseudomonas aeruginosa PAO1
# [23] = system: Staphylococcus aureus ATCC BAA-41
# Escherichia coli BL21 = system: Escherichia coli BL21
compound,measurement,setting,value
CC[C@H](C)[C@H](NC(=O)[C@H](CCCN=C(N)N)NC(=O)[C@H](CCC(N)=O)NC(=O)[C@@H](NC(=O)[C@@H](NC(=O)[C@H](CCCN=C(N)N)NC(=O)[C@H](CCCCN)NC(C)=O)[C@@H](C)CC)C(C)C)C(=O)N[C@@H](CCCCN)C(=O)N[C@@H](CC(=O)O)C(=O)N[C@@H](Cc1ccccc1)C(=O)N[C@@H](CC(C)C)C(=O)N[C@@H](CCCN=C(N)N)C(=O)N[C@@H](C)C(=O)NCC(=O)N1CCC[C@H]1C(=O)N[C@H](C(=O)N[C@@H](CCCCN)C(=O)N[C@@H](CC(=O)O)C(=O)N[C@@H](Cc1ccccc1)C(=O)N[C@@H](CC(C)C)C(=O)N[C@@H](CCCN=C(N)N)C(N)=O)[C@@H](C)CC [KRIVQRIKDFLRAGPIKDFLR],MIC,[1],0.778 µM and 0.389 µM
CC[C@H](C)[C@H](NC(=O)[C@H](CCCCN)NC(=O)[C@@H](NC(=O)[C@@H](N)Cc1c[nH]c2ccccc12)[C@@H](C)CC)C(=O)N[C@@H](Cc1c[nH]c2ccccc12)C(=O)N[C@@H](CCCCN)C(=O)N[C@@H](CCCCN)C(=O)N[C@H](C(=O)N[C@H](C(=O)N[C@@H](CCCCN)C(=O)N[C@@H](CCCCN)C(=O)N[C@@H](Cc1c[nH]c2ccccc12)C(=O)N[C@@H](CCCCN)C(=O)N[C@@H](CCCCN)C(=O)O)[C@@H](C)CC)[C@@H](C)CC [WIKIWKKIIKKWKK],MIC,[2],4 µM
same,MIC,Escherichia coli K99,4 µM
same,MIC,Escherichia coli UB1005,8 µM
same,MIC,[3],≥ 128 µM
same,MIC,[4],≥ 128 µM
same,MIC,[5],≥ 128 µM
same,MIC,[6],≥ 128 µM
same,MIC,Escherichia coli 078,16 µM
same,MIC,Escherichia coli 987P,2 µM
same,MIC,[7],4 µM
same,MIC,Escherichia coli K88,8 µM
same,MIC,[8],8 µM
same,MIC,[9],4 µM
same,MIC,[10],8 µM
same,MIC,[11],≥ 128 µM
same,MIC,[12],≥ 128 µM
same,MIC,[13],≥ 128 µM
CC[C@H](C)[C@@H]1NC(=O)[C@H](C)NC(=O)[C@@H](NC(=O)[C@H](Cc2ccccc2)NC(=O)[C@@H](NC(=O)[C@H](CCCCN)NC(=O)[C@H](Cc2c[nH]c3ccccc23)NC(=O)[C@@H]2CCCN2C(=O)[C@H](Cc2c[nH]c3ccccc23)NC(=O)[C@H](Cc2ccccc2)NC(=O)[C@@H](N)CCCCN)[C@@H](C)CC)CSSC[C@@H](C(=O)O)NC(=O)[C@H](CCCCN)NC(=O)[C@H](CCCCN)NC(=O)[C@H]([C@@H](C)O)NC1=O [KFWPWKIFCAITKKC],MIC,[2],64 µM
same,MIC,[14],16 µM
same,MIC,[15],≥ 32 µM
same,MIC,[16],≥ 256 µM
same,MIC,[17],8 µM
same,MIC,[18],8 µM
same,MIC,[19],8 µM
CC[C@H](C)[C@H](NC(=O)[C@H](CCCCN)NC(=O)[C@H](CCCCN)NC(=O)[C@H](Cc1ccccc1)NC(=O)[C@H](CC(C)C)NC(=O)[C@H](CCCCN)NC(=O)[C@H](Cc1c[nH]c2ccccc12)NC(=O)[C@@H](N)CCCCN)C(=O)NCC(=O)N[C@@H](CCCCN)C(=O)N[C@H](C(=O)N[C@@H](CC(C)C)C(=O)N[C@@H](CCCCN)C(=O)N[C@H](C(=O)N[C@@H](CC(C)C)C(=O)O)C(C)C)C(C)C [KWKLFKKIGKVLKVL],MIC,[20],1.41 µM
same,MIC,[21],0.5 µM
same,MIC,[22],1.41 µM
same,MIC,[23],4 µM
same,MIC,Escherichia coli BL21,0.707 µM
